# Laboratory results reported in patent publication US20250082752A1, “COMPOUNDS, TARGETS, AND METHODS FOR MODULATING LYTIC GRANULE CONVERGENCE IN CYTOTOXIC CELLS TO PROMOTE BYSTANDER KILLING IN CELLULAR THERAPIES” (THE TRUSTEES OF COLUMBIA UNIVERSITY IN THE CITY OF NEW YORK, priority 2022, published 2025).
# “Also recorded” adds a separate entry of the source.
# Key:
# YTS cells [1] = experiment: Golgi fragmentation and granule dispersion in LPA-stimulated YTS cells; assay type: cell-based; details: 20 μM LPA for two hours, sodium salt
# Description: One way to induce the Golgi outpost formation through elongation and fission, is using LPA, which is predicted to activate a pathway dependent on transforming protein RhoA and effectively induce the formation of Golgi Outpost. […] The cells were also tested for Cr-51 (FIG. 14C). […] This dispersion was thus increased in quantity and spread on the GCC2 KO cells.
# NK cell [2] = experiment: Durability/reversibility of deconvergence after the inhibitor is removed from media; assay type: cell-based; details: NK cell activation on activating glass surface at different times after removal from media
# Description: (§1) YTS cells were treated with DMSO or one of three different dynein inhibitors (Ciliobrevin-D, Dynapyrazole-A, or Compound 3016) and then incubated on an activating glass surface for 30 min. Cells were fixed, stained for a-tubulin, F-actin, perforin, and DNA (DAPI), and imaged via spinning disc confocal microscopy. Examples of individual cells (top) showing all stains and a broader field (bottom) at lower magnification showing only perforin to give an impression of the degree of granule convergence in a field of cells (FIG. 10A). […] Points show mean+SD of 3 independent experiments measuring >20 cells each.
# Reversibility time for convergence is determined by activating small molecule inhibitor pre-treated NK cells on anti-NKp30/anti-CD18-coated or anti-CD28/anti-CD18 glass surfaces in the absence of the compound of interest. In short-term live-cell experiments, cells are labeled with lysotracker and fluorescent protein-conjugated tubulin; for longer term experiments, the more durable lytic granule label, LAMP1-mApple, is used. The efficiency of non-directional degranulation will be measured with the previously disclosed LAMP1-pHluorin cell line, which marks the lytic granule pH change that accompanies degranulation. […]
# NK cell [3] = details: previous work, cited from earlier work
# YTS cells [4] = experiment: Lytic granule convergence/dispersion in dynein inhibitor-treated YTS cells on an activating glass surface (confocal microscopy); assay type: cell-based; details: dynein inhibitor vs DMSO, activating glass surface 30 min
# Description: as §1
# This work served as proof-of-concept that influencing positional degranulation can be used to harness the NK cell lytic machinery.
# To identify the best candidates to control lytic granule positioning, a high throughput screen (HTS) for activation-induced lytic granule convergence was developed. This is a novel method that utilizes a simple shape-based approach (a grid based on the a-tubulin defined NK cell footprint and Euclidean distance from the MTOC) to generate an estimated mean granule distance (eMGD) from the MTOC (FIGS. 11A-11C). This approach allows us to quickly screen large numbers of molecular candidates. MGD will be measured in 3D in fixed NK cells activated on an anti-NKp30/anti-CD18 or anti-CD28/anti-CD18 coated glass surface over a range of activation times, conditions, and NK cell types. Cells will be stained to identify the MTOC (for example, pericentrin) and lytic granules (mature perforin). The measured MGD is an indicator of convergence.
# NK cells = experiment: Lytic granule dispersion in pretreated NK cells seeded on surfaces coated with activating antibodies; assay type: cell-based; details: NK cells pretreated at 5 μM for 30 min
# From the text: FIGS. 59B-59E are magnified image of marked areas in FIG. 59A focusing on cells with dispersed granule. Perforin staining is shown in green, and alpha-tubulin is staining is shown in red.
# FIGS. 60B-60E are magnified image of marked areas in FIG. 60A focusing on cells with dispersed granule. The position of the granules is indicated by perforin staining.
# FIGS. 61B-61E are magnified image of marked areas in FIG. 61A focusing on cells with dispersed granule. The position of the granules is indicated by perforin staining.
# NK cells were pretreated with N-{1-[(4-chlorophenyl)methyl]piperidin-4-yl}prop-2-enamide (FIG. 56) at […] for 30 min. The treated NK cells were seeded onto surfaces coated with activating antibodies.
# NK cells were pretreated with 1-(prop-2-enamido)-N-[(thiophen-2-yl)methyl]cyclohexane-1-carboxamide (FIG. 57) at 5 μM for 30 min. The treated NK cells were seeded onto surfaces coated with activating antibodies.
# NK cells were pretreated 1-[3-(4-fluorophenyl) prop-2-enoyl]-4-hydroxypyrrolidine-2-carboxylic acid (FIG. 58) at 5 μM for 30 min. The treated NK cells were seeded onto surfaces coated with activating antibodies.
# bystander K562 cells = experiment: Bystander killing by Dynapyrazole A-pretreated YTS cells; assay type: cell-based; details: YTS cells pretreated with 5 μM for 30 minutes
# From the text: The graph is representative of three independently performed biological repeats.
# To assess tumor cell and bystander killing, TheCOS comprises NK cell lines, tumor cell targets, and NK-resistant tumor cell bystanders. LAMP1-mApple-pHluorin-expressing NK cell lines enable visualization of granules (mApple) and degranulation events (pHluorin transition). mTurquoise2 mark susceptible tumor cells, and Citrine mark bystander cells. SYTOX deep red is included in the hydrogel to identify the nuclei of dying cells. A cell positive for Turquoise and SYTOX fluorescence denote a dying tumor cell, whereas a cell positive for Citrine and SYTOX indicate a dying bystander cell. 1×10^5 target tumor cells and 1×10^5 NK cells (for an initial 1:1 tumor to effector ratio)+/−1×10^6 bystander cells are deposited into separate thermally responsive hydrogel layers and then encased in thermally stable hydrogel. This sandwich is then deposited the into our imaging chamber. Prewarmed media is added to collapse the hydrogel layers.
# (§2) YTS cells are treated with 5 μM of Dynapyrazole A for 30 minutes, then washed twice with culture media. Then cells are stimulated either with 721.221 target cells, K562 target cells, or with an activating surface (coverslip coated with anti CD18 and/or anti CD28).
# YTS cells [5] = experiment: Granule distance to MTOC in Dynapyrazole A-treated YTS cells on a CD28/CD18 activating surface; assay type: cell-based; details: 5 μM for 30 minutes, washed
# Description: as §2
# YTS cells [6] = experiment: Mean granule distance (MGD) and automated estimated MGD (eMGD) from the MTOC in activated YTS cells; assay type: cell-based; details: YTS cells activated on glass via CD18/CD28 for 30 minutes, p<0.01
# From the text: FIGS. 11A-11H depict exemplary results related to mean granule distance (MGD) and automated estimated mean granule distance (eMGD). FIG. 11A depicts an exemplary high-resolution confocal imaging of lytic granules (labeled by perforin) and tubulin, which allows for automated intensity threshold-based identification of granules as shown in FIG. 11B (outlines indicate for granules and the microtubule-organizing center (MTOC)). FIG. 11C depicts the equation for calculating […] using x and y coordinates of each granule relative to the MTOC. […] FIG. 11E is an exemplary image of a fixed NK cell from the screen (labeled with perforin and tubulin) to which the Euclidean method for assessing granule localization relative to a total cell, tubulin-defined footprint of FIG. 11F can be applied. eMGD is then calculated using a Matlab script and the formula shown in FIG. 11G. […]
# To identify the best candidates to control lytic granule positioning, a high throughput screen (HTS) for activation-induced lytic granule convergence was developed. […] MGD will be measured in 3D in fixed NK cells activated on an anti-NKp30/anti-CD18 or anti-CD28/anti-CD18 coated glass surface over a range of activation times, conditions, and NK cell types. […] The measured MGD is an indicator of convergence. […]
# YTS cells [7] = experiment: Confocal microscopy of granule dispersion in YTS cells after Centrinone or CFI400495; assay type: cell-based; details: YTS cells after treatment with Centrinone or CFI400495
# Description: (§3) Centrinone and CFI400495 are high affinity and selective PLK4 inhibitors that induce depletion of the centrosome and cell cycle arrest. YTS cells were treated for 5 days with Centrinone 5 nM or CFI400495 50 nM. […] For this experiment, 5×10^5 cells/ml YTS cells were incubated during 5 days Centrinone 5 nM or CFI400495 50 nM, every 24 hours the media were replaced with fresh media containing similar amounts of the drug. On day 5, cells were assessed by microscopy for gamma-tubulin or alpha-tubulin.
# YTS cells [8] = experiment: Number of MTOC (alpha-tubulin hyper densities) in YTS cells treated with PLK4 inhibitors; assay type: cell-based; details: 5 days, Centrinone 5 nM or CFI400495 50 nM
# Description: as §3
# YTS cells [9] = experiment: CD107a degranulation of treated YTS cells after conjugation with 721.221 target cells; assay type: cell-based; details: 5 days, Centrinone 5 nM or CFI400495 50 nM
# Description: CD107a (also known as LAMP-1) is the standard to measure the process of degranulation. The more CD107a is expressed on the surface of the cell after stimulation, the more granules have been released. This is limited to the immunological synapse, in part secondary to the convergence process. CD107a upregulation is measured via flow cytometry after PMA/lonomycin activation and can be measured following target cell conjugation. […] The latter requires synapse formation and engagement of receptors for downstream activation signaling. Differences in results between these two approaches (target cell conjugation versus PMA/lonomycin) map the candidate's impact to early (synapse formation and signaling) or late (mechanics of) degranulation.
# as §3
compound,measurement,setting,value
1-Oleoyl lysophosphatidic acid sodium salt [LPA],Golgi fragmentation,YTS cells [1],increase in Golgi fragments; also recorded: Golgi fragmentation
same,granule dispersion / convergence,YTS cells [1],blocks convergence; also recorded: granule dispersion
"N#CC(C(=O)c1ccc(Cl)cc1Cl)=C1NC(=O)c2ccc(Cl)cc2N1 [Ciliobrevin D, 2-(7-chloro-4-oxo-3,4-dihydroquinazolin-2 (1H)-ylidene)-3-(2,4-dichlorophenyl)-3-oxopropanenitrile]",durability of deconvergence after inhibitor removed from media,NK cell [2],"Neither inhibitor, however, promotes sustained deconvergence"
same,durability of deconvergence after inhibitor removed from media,NK cell [2]; listed as CIL-D,quickly reversible
same,killing of bystander cells,NK cell [3]; UGATm and other single cell assays,promoted killing of bystander cells
same,inhibition of lytic granule convergence (previously used),NK cell [3],inhibit lytic granule convergence
same,lytic granule convergence / dispersion,YTS cells [4],lytic granule dispersion
same,lytic granule convergence / dispersion,YTS cells [4]; listed as CIL-D,highly effective in preventing lytic granule convergence
"O=C(O)C1CC(O)CN1C(=O)C=Cc1ccc(F)cc1 (stereo not shown) [Compound 3977, 1-[3-(4-fluorophenyl)prop-2-enoyl]-4-hydroxypyrrolidine-2-carboxylic acid]",lytic granule dispersion,NK cells,induce lytic granule dispersion; also recorded: lytic granule dispersion induced
"N#Cc1c(C2(c3ccc(Cl)cc3)CC2)nn2c1[nH]c(=O)c1cc(I)ccc12 [Dynapyrazole A, 2-[1-(4-Chlorophenyl)cyclopropyl]-4,5-dihydro-7-iodo-5-oxopyrazolo[1,5-a]quinazoline-3-carbonitrile]",killing of bystander K562 cells,bystander K562 cells,kill bystander K562 cells
same,killing of bystander K562 cells,bystander K562 cells; listed as Dynapyrazole-A,kill bystander K652 cells
same,lytic granule dispersion (granule distance to MTOC),YTS cells [5],induces lytic granule dispersion
same,lytic granule dispersion (granule distance to MTOC),YTS cells [5]; listed as Dynapyrazole-A,high lytic granule dispersion
same,"estimated mean granule distance (eMGD), change vs DMSO",YTS cells [6]; GE InCell Analyzer,Increase
same,"mean granule distance (MGD), change vs DMSO",YTS cells [6]; confocal microscope,Increase
same,lytic granule convergence / dispersion,YTS cells [4]; listed as Dynapyrazole-A,lytic granule dispersion
same,lytic granule convergence / dispersion,YTS cells [4]; listed as dynapyrazole-A,highly effective in preventing lytic granule convergence
"C=CC(=O)NC1(C(=O)NCc2cccs2)CCCCC1 [Compound 7779, 1-(prop-2-enamido)-N-[(thiophen-2-yl)methyl]cyclohexane-1-carboxamide]",lytic granule dispersion,NK cells,induce lytic granule dispersion; also recorded: lytic granule dispersion induced
"COc1c(Nc2cc(C)[nH]n2)nc(Sc2ccc(S(=O)(=O)Cc3cccc([N+](=O)[O-])c3F)cc2F)nc1N1CCOCC1 [Centrinone, 2-[[2-Fluoro-4-[[(2-fluoro-3-nitrophenyl)methyl]sulfonyl]phenyl]thio]-5-methoxy-N-(5-methyl-1H-pyrazol-3-yl)-6-(4-morpholinyl)-4-pyrimidinamine]",granule dispersion (confocal microscopy images),YTS cells [7],more disperse granules
same,number of MTOC (alpha Tubulin hyper densities),YTS cells [8],increase number of mTOC
same,degranulation (CD107a expression),YTS cells [9],increases degranulation
"C=CC(=O)NC1CCN(Cc2ccc(Cl)cc2)CC1 [Compound 5814, N-{1-[(4-chlorophenyl)methyl]piperidin-4-yl}prop-2-enamide]",lytic granule dispersion,NK cells,induce lytic granule dispersion; also recorded: lytic granule dispersion induced
